Reference: ChEMBL document CHEMBL4152340, “Targeting the MDM2-p53 protein-protein interaction with prenylchalcones: Synthesis of a small library and evaluation of potential antitumor activity” (Eur J Med Chem, 2018)
One block for each molecule: values may come before it. The source made the active and inactive calls. The rule behind the calls is not given here.

What was measured:
HCT-116 [1] = assay: Antiproliferative activity against human HCT116 cells after 48 hrs by SRB assay; format: functional, cell-based; settings: HCT-116, 48 h
Saccharomyces cerevisiae [2] = assay: Growth inhibition of Saccharomyces cerevisiae expressing p53 at 1 to 50 uM after 42 hrs by Yeast-based assay; format: organism-based; settings: in vivo
Saccharomyces cerevisiae [3] = assay: Growth inhibition of Saccharomyces cerevisiae expressing empty vector at 1 to 50 uM after 42 hrs by Yeast-based assay; format: organism-based; settings: in vivo
[4] = molecular target: T1, Tumour suppressor p53/oncoprotein Mdm2 (Homo sapiens) (UniProt P04637+Q00987); assay: Inhibition of human MDM2-p53 interaction in Saccharomyces cerevisiae assessed as p53 induced cell growth arrest at 1 to 50 uM after 42 hrs by Yeast-based assay; format: protein assay
Saccharomyces cerevisiae [5] = assay: Growth inhibition of Saccharomyces cerevisiae expressing MDM2 at 1 to 50 uM after 42 hrs by Yeast-based assay; format: organism-based; settings: in vivo
A-375 = assay: Antiproliferative activity against human A375 cells after 48 hrs by SRB assay; format: functional, cell-based; settings: A-375, 48 h
MCF7 = assay: Antiproliferative activity against human MCF7 cells after 48 hrs by SRB assay; format: functional, cell-based; settings: MCF7, 48 h
[6] = molecular target: T1, Tumour suppressor p53/oncoprotein Mdm2 (Homo sapiens); assay: Inhibition of MDM2-p53 interaction in human HCT116 cells assessed as p53 activation by measuring decrease in Bcl-2 level at 4.2 uM after 48 hrs by Western blot analysis; format: cell-based
[7] = Selectivity ratio of IC50 for human HFF to IC50 for human MCF7 cells; format: toxicity; settings: HFF cells versus MCF7 cells, read-out: Ratio IC50
[8] = molecular target: T1, Tumour suppressor p53/oncoprotein Mdm2 (Homo sapiens); assay: Inhibition of MDM2-p53 interaction in human HCT116 cells assessed as p53 activation by measuring increase in PUMA level at 4.2 uM after 48 hrs by Western blot analysis; format: cell-based
HCT-116 [9] = assay: Cell cycle arrest in human HCT116 cells assessed as accumulation at G2/M phase at 4.2 uM after 48 hrs by propidium iodide staining-based flow cytometric analysis; format: functional
[10] = Selectivity ratio of IC50 for human HFF to IC50 for human HepG2 cells; format: toxicity; settings: HFF cells versus HepG2 cells, read-out: Ratio IC50
HCT-116 [11] = assay: Anticlonogenic activity against human HCT116 cells after 11 days by crystal violet staining based assay; format: functional, cell-based; settings: HCT-116, 264 h
[12] = molecular target: T1, Tumour suppressor p53/oncoprotein Mdm2 (Homo sapiens); assay: Inhibition of MDM2-p53 interaction in human HCT116 cells assessed as p53 activation by measuring increase in GADD45 level at 4.2 uM after 48 hrs by Western blot analysis; format: cell-based
[13] = molecular target: T1, Tumour suppressor p53/oncoprotein Mdm2 (Homo sapiens); assay: Inhibition of MDM2-p53 interaction in human HCT116 cells assessed as p53 activation by measuring increase in MDM2 expression at 4.2 uM after 48 hrs by Western blot analysis; format: cell-based
[14] = Selectivity ratio of IC50 for human HFF to IC50 for human A375 cells; format: toxicity; settings: HFF cells versus A375 cells, read-out: Ratio IC50
HCT-116 [15] = assay: Induction of mitochondrial ROS generation in human HCT116 cells at 4.2 uM after 48 hrs by MitoSOX dye-based flow cytometric analysis; format: functional, cell-based
HepG2 = assay: Antiproliferative activity against human HepG2 cells after 48 hrs by SRB assay; format: functional, cell-based; settings: HepG2, 48 h
[16] = Selectivity ratio of IC50 for human HFF to IC50 for human HCT116 cells; format: toxicity; settings: HFF cells versus HCT116 cells, read-out: Ratio IC50
[17] = molecular target: T1, Tumour suppressor p53/oncoprotein Mdm2 (Homo sapiens); assay: Inhibition of MDM2-p53 interaction in human HCT116 cells assessed as p53 activation by measuring increase in p21 level at 4.2 uM after 48 hrs by Western blot analysis; format: cell-based
HCT-116 [18] = assay: Induction of apoptosis in human HCT116 cells at 4.2 uM after 48 hrs by annexin V/FITC-propidium iodide staining-based flow cytometric method; format: functional, cell-based
[19] = molecular target: T1, Tumour suppressor p53/oncoprotein Mdm2 (Homo sapiens); assay: Inhibition of MDM2-p53 interaction in human HCT116 cells assessed as p53 activation by measuring increase in cleaved-PARP level at 4.2 uM after 48 hrs by Western blot analysis; format: cell-based
Saccharomyces cerevisiae [20] = assay: Growth inhibition of Saccharomyces cerevisiae expressing empty vector at 10 uM after 42 hrs by Yeast-based assay; format: organism-based; settings: in vivo
Saccharomyces cerevisiae [21] = assay: Growth inhibition of Saccharomyces cerevisiae expressing p53 at 10 uM after 42 hrs by Yeast-based assay; format: organism-based; settings: in vivo
Saccharomyces cerevisiae [22] = assay: Growth inhibition of Saccharomyces cerevisiae expressing MDM2 at 10 uM after 42 hrs by Yeast-based assay; format: organism-based; settings: in vivo

T1 sequence (P04637 whole entry, looked up): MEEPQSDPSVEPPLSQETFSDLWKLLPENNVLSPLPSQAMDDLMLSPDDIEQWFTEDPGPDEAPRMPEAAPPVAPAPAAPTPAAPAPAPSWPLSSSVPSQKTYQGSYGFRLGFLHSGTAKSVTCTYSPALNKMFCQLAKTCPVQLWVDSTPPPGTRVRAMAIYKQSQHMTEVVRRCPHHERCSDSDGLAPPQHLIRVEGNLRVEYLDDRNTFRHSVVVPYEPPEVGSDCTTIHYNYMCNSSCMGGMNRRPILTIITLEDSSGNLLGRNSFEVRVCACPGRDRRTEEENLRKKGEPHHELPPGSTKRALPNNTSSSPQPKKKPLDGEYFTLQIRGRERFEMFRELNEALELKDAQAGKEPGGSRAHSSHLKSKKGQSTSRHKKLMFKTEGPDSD
T1 sequence (Q00987 whole entry, looked up): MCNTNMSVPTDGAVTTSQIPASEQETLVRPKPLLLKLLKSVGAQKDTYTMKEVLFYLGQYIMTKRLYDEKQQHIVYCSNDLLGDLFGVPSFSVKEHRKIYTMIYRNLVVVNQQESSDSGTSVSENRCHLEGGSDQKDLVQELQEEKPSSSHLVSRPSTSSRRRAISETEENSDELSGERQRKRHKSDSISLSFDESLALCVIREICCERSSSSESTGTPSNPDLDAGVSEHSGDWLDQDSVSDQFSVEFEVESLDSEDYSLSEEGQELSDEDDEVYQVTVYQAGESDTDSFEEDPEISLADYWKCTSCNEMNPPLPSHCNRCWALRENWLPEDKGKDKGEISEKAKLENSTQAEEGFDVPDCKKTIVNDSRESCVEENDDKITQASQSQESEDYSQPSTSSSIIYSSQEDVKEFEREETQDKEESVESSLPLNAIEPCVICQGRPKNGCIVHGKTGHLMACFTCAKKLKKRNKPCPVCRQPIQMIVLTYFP

IC50 (HCT-116 [1]): 7.7 µM
Compound: COc1cccc(/C=C/C(=O)c2c(OC)cc(OC)cc2OCC=C(C)C)c1

IC50 (HCT-116 [1]): 3.2 µM
Compound: COc1cc(OC)c(C(=O)/C=C/c2ccc(F)cc2)c(OCC=C(C)C)c1

IC50 (HCT-116 [1]): 50 µM | inhibition [4]: Active
Compound: COc1ccc(/C=C/C(=O)c2c(O)cc(OC)cc2OC)c(OC)c1
growth inhibition (GI) (Saccharomyces cerevisiae [2]): Non-Toxic | growth inhibition (GI) (Saccharomyces cerevisiae [3]): Non-Toxic | growth inhibition (GI) (Saccharomyces cerevisiae [5]): Non-Toxic

IC50 (HCT-116 [1]): 10.6 µM | inhibition [4]: Active
Compound: COc1ccc(/C=C/C(=O)c2c(O)cc(OC)cc2OC)cc1 [FLAVOKAWAIN A]
growth inhibition (GI) (Saccharomyces cerevisiae [2]): Non-Toxic | growth inhibition (GI) (Saccharomyces cerevisiae [3]): Non-Toxic | growth inhibition (GI) (Saccharomyces cerevisiae [5]): Non-Toxic

IC50 (HCT-116 [1]): 1.9 µM
Compound: COc1cc(O)c(C(=O)/C=C/c2cc(Cl)cc(Cl)c2)c(OC)c1

IC50 (HCT-116 [1]): 1.9 µM
Compound: COc1cc(OC)c(C(=O)/C=C/c2cccc(Cl)c2Cl)c(OCC=C(C)C)c1

IC50 (HCT-116 [1]): 3.5 µM
Compound: COc1cc(/C=C/C(=O)c2c(OC)cc(OC)cc2OCC=C(C)C)cc(OC)c1

IC50 (HCT-116 [1]): 3.1 µM
Compound: COc1cccc(/C=C/C(=O)c2c(O)cc(OC)cc2OC)c1

IC50 (HCT-116 [1]): 14 µM
Compound: COc1cc(O)c(C(=O)/C=C/c2ccc(Br)cc2)c(OC)c1

IC50 (HCT-116 [1]): 2.9 µM
Compound: COc1cc(OC)c(C(=O)/C=C/c2cc(OC)c(OC)c(OC)c2)c(OCC=C(C)C)c1CC=C(C)C

IC50 (A-375): 1.6 µM | IC50 (MCF7): 2.8 µM | IC50 (HCT-116 [1]): 2.1 µM | inhibition [6]: Active | inhibition [8]: Active | IC50 (HCT-116 [11]): 0.17 µM | inhibition [12]: Active | inhibition [13]: Active | IC50 (HepG2): 3.6 µM | inhibition [4]: Active | inhibition [17]: Active | inhibition [19]: Active
Compound: COc1cc(OC)c(C(=O)/C=C/c2ccc(Br)cc2)c(OCC=C(C)C)c1
growth inhibition (GI) (Saccharomyces cerevisiae [2]): Non-Toxic | selectivity ratio [7]: 3 | Activity (HCT-116 [9]): Active | selectivity ratio [10]: 3 | growth inhibition (GI) (Saccharomyces cerevisiae [3]): Non-Toxic | selectivity ratio [14]: 3 | Activity (HCT-116 [15]): Active | selectivity ratio [16]: 3 | Activity (HCT-116 [18]): Active | growth inhibition (GI) (Saccharomyces cerevisiae [5]): Non-Toxic

IC50 (HCT-116 [1]): 4.2 µM
Compound: COc1cc(OCC=C(C)C)c(C(=O)/C=C/c2cc(OC)c(OC)c(OC)c2)c(OC)c1CC=C(C)C

IC50 (HCT-116 [1]): 7.6 µM
Compound: COc1ccc(/C=C/C(=O)c2c(OC)cc(OC)cc2OCC=C(C)C)cc1

IC50 (HCT-116 [1]): 3.5 µM
Compound: COc1cc(O)c(C(=O)/C=C/c2cccc(OC)c2OC)c(OC)c1

IC50 (HCT-116 [1]): 11.7 µM | inhibition [4]: Active
Compound: COc1cc(OC)c(C(=O)/C=C/c2cccc(OC)c2OC)c(OCC=C(C)C)c1
growth inhibition (GI) (Saccharomyces cerevisiae [2]): Non-Toxic | growth inhibition (GI) (Saccharomyces cerevisiae [3]): Non-Toxic | growth inhibition (GI) (Saccharomyces cerevisiae [5]): Non-Toxic

Compound: COc1ccc(C2=N[C@@H](c3ccc(Cl)cc3)[C@@H](c3ccc(Cl)cc3)N2C(=O)N2CCNC(=O)C2)c(OC(C)C)c1 [NUTLIN-3]
growth inhibition (GI) (Saccharomyces cerevisiae [20]): Non-Toxic | growth inhibition (GI) (Saccharomyces cerevisiae [21]): Non-Toxic | growth inhibition (GI) (Saccharomyces cerevisiae [22]): Non-Toxic

IC50 (HCT-116 [1]): 24.5 µM
Compound: COc1cc(OC)c(C(=O)/C=C/c2cc(Cl)cc(Cl)c2)c(OCC=C(C)C)c1

IC50 (HCT-116 [1]): 27.6 µM
Compound: COc1cc(O)c(C(=O)/C=C/c2ccc(OC)c(OC)c2)c(OC)c1

IC50 (HCT-116 [1]): 4.4 µM
Compound: COc1cc(O)c(C(=O)/C=C/c2ccc(F)cc2)c(OC)c1

IC50 (HCT-116 [1]): 15.3 µM
Compound: COc1cccc(/C=C/C(=O)c2c(O)c(CC=C(C)C)c(OC)c(CC=C(C)C)c2OC)c1OC

IC50 (HCT-116 [1]): 2.7 µM
Compound: COc1cc(O)c(C(=O)/C=C/c2cccc(Cl)c2Cl)c(OC)c1

IC50 (HCT-116 [1]): 29.5 µM | inhibition [4]: Active
Compound: COc1cc(O)c(C(=O)/C=C/c2cccc(OC)c2OC)c(OC)c1CC=C(C)C
growth inhibition (GI) (Saccharomyces cerevisiae [2]): Non-Toxic | growth inhibition (GI) (Saccharomyces cerevisiae [3]): Non-Toxic | growth inhibition (GI) (Saccharomyces cerevisiae [5]): Non-Toxic

IC50 (HCT-116 [1]): 5.7 µM
Compound: COc1cc(OC)c(C(=O)/C=C/c2ccc(OC)c(OC)c2)c(OCC=C(C)C)c1

IC50 (HCT-116 [1]): 7.4 µM
Compound: COc1ccc(/C=C/C(=O)c2c(OCC=C(C)C)cc(OC)c(CC=C(C)C)c2OC)cc1OC
